Results reported in patent publication US12692254B2, “Benzimidazole inhibitors of PAD enzymes” (BRISTOL-MYERS SQUIBB COMPANY, priority 2018, dated 2026).
pIC50: −log10 of the molar value.

The compounds below were run against human PAD4 (hPAD4) (Homo sapiens, UniProt Q9UM07) (assay: RFMS human PAD4 functional assay (rapid-fire mass spectrum)). Conditions: 5 nM hPAD4 enzyme, 250 μM BAEE, 50 μM Calcium; 30 min preincubation, 90 min reaction at 37° C.
Format: biochemical
Procedure, shortened: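 PAD4 (10 nM) preincubated 30 min with compound (top final 50 μM), then BAEE substrate added in pH 7.5 HEPES buffer with DTT, 50 μM calcium, TPEN; 90 min at 37° C. After TCA quench, citrulline derivatized with phenyl glyoxal (4 mM final, 30 min, 37° C) and quantified by RapidFire MS against internal standard.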

Sequence of human PAD4 (hPAD4) (Q9UM07 whole entry): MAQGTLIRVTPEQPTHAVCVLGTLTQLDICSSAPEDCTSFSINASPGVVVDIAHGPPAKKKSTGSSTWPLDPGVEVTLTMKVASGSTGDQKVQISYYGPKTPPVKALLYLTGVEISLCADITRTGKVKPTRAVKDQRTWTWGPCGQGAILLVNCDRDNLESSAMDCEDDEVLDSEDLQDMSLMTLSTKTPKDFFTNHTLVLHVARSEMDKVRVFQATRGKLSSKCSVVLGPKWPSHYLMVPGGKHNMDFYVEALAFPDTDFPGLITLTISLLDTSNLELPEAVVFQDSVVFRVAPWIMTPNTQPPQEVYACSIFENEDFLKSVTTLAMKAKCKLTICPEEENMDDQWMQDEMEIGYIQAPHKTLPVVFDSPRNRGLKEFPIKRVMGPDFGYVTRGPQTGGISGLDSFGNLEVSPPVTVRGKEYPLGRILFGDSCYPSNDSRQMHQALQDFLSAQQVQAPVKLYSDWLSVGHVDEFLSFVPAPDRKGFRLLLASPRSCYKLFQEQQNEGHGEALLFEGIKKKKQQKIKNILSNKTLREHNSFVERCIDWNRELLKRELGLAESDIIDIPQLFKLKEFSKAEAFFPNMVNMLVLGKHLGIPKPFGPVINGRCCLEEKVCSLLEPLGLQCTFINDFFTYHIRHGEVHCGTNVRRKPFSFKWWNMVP

Row | Compound | pIC50
1 | COc1cc(C(=O)N2C[C@H]3CC[C@@H]2[C@@H]3N)cc2nc(-c3cc4ccccc4n3CC3CC3)n(CC3CN(C(=O)c4cc(C#N)ccc4F)C3)c12 [Example 174, 3-[3-({5-[(1R,4R,7R)-7-amino-2-azabicyclo[2.2.1]heptane-2-carbonyl]-2-[1-(cyclopropylmethyl)-1H-indol-2-yl]-7-methoxy-1H-1,3-benzodiazol-1-yl}methyl)azetidine-1-carbonyl]-4-fluorobenzonitrile] | 7.19
2 | N[C@@H]1[C@@H]2CC[C@H]1N(C(=O)c1ccc3c(c1)nc(-c1cc4ccccc4n1CC1CC1)n3CC1CN(C(=O)c3ccncc3)C1)C2 [Example 175, (1R,4R,7R)-2-{2-[1-(cyclopropylmethyl)-1H-indol-2-yl]-1-{[1-(pyridine-4-carbonyl)azetidin-3-yl]methyl}-1H-1,3-benzodiazole-5-carbonyl}-2-azabicyclo[2.2.1]heptan-7-amine] | 7.29
3 | COc1cc(C(=O)N2C[C@H](N)CC[C@@H]2C)cc2nc(-c3cc4ccccc4n3CC3CC3)n(CC3CN(C(=O)c4ccc(C#N)cc4)C3)c12 [Example 176, 4-[3-({5-[(2S,5R)-5-amino-2-methylpiperidine-1-carbonyl]-2-[1-(cyclopropylmethyl)-1H-indol-2-yl]-7-methoxy-1H-1,3-benzodiazol-1-yl}methyl)azetidine-1-carbonyl]benzonitrile] | 7.10
4 | COc1ccc2cc(-c3nc4cc(C(=O)N5C[C@H]6CC[C@@H]5[C@@H]6N)cc(OC)c4n3CC3CN(C(=O)c4cnc(C#N)nc4)C3)n(CC3CC3)c2n1 [Example 177, 5-[3-({5-[(1R,4R,7R)-7-amino-2-azabicyclo[2.2.1]heptane-2-carbonyl]-2-[1-(cyclopropylmethyl)-6-methoxy-1H-pyrrolo[2,3-b]pyridin-2-yl]-7-methoxy-1H-1,3-benzodiazol-1-yl}methyl)azetidine-1-carbonyl]pyrimidine-2-carbonitrile] | 7.27
5 | COc1cc(C(=O)N2CC3CCC2[C@@H]3N)cc2nc(-c3cc4ccccc4n3C)n(CC3CN(C(=O)c4ccc(C#N)cc4)C3)c12 (stereo partly drawn) [Example 178, 4-[3-({5-[(7R)-7-amino-2-azabicyclo[2.2.1]heptane-2-carbonyl]-7-methoxy-2-(1-methyl-1H-indol-2-yl)-1H-1,3-benzodiazol-1-yl}methyl)azetidine-1-carbonyl]benzonitrile] | 7.07
6 | COc1cc(C(=O)N2CC3CCC2[C@@H]3N)cc2nc(-c3cc4ccccc4n3CC3CC3)n(CC3CN(C(=O)c4ccccc4C(=O)O)C3)c12 (stereo partly drawn) [Example 179, 2-[3-({5-[(1R,4R,7R)-7-amino-2-azabicyclo[2.2.1]heptane-2-carobnyl]-2-[1-(cyclopropylmethyl)-1H-indol-2-yl]-7-methoxy-1H-1,3-benzodiazol-1-yl}methyl)azetidine-1-carbonyl]benzoic acid] | 7.03
7 | COc1cc(C(=O)N2CCC[C@@H](N)C2)cc2nc(-c3cc4ccccc4n3CC3CC3)n(CC3CN(C(=O)c4ccc(C#N)cc4)C3)c12 [Example 180, 4-[3-({5-[(3R)-3-aminopiperidine-1-carbonyl]-2-[1-(cyclopropylmethyl)-1H-indol-2-yl]-7-methoxy-1H-1,3-benzodiazol-1-yl}methyl)azetidine-1-carbonyl]benzonitrile] | 7.02
8 | COc1cc(C(=O)N2C[C@H]3CC[C@@H]2[C@@H]3N)cc2nc(-c3cc4ccccc4n3C)n(CC3CN(C(=O)c4ccccc4)C3)c12 [Example 181, (1R,4R,7R)-2-{1-[(1-benzoylazetidin-3-yl)methyl]-7-methoxy-2-(1-methyl-1H-indol-2-yl)-1H-1,3-benzodiazole-5-carbonyl}-2-azabicyclo[2.2.1]heptan-7-amine] | 7.00
9 | COc1cc(C(=O)N2C[C@H]3CC[C@@H]2[C@@H]3N)cc2nc(-c3cc4cccnc4n3CC3CC3)n(CC3CN(C(=O)c4cc[nH]c(=O)c4)C3)c12 [Example 182, 4-[3-({5-[(1R,4R,7R)-7-amino-2-azabicyclo[2.2.1]heptane-2-carbonyl]-2-[1-(cyclopropylmethyl)-1H-pyrrolo[2,3-b]pyridin-2-yl]-7-methoxy-1H-1,3-benzodiazol-1-yl}methyl)azetidine-1-carbonyl]-1,2-dihydropyridin-2-one] | 6.69
10 | COc1cc(C(=O)N2C[C@H]3CC[C@@H]2[C@@H]3N)cc2nc(-c3cc4cccnc4n3CC3CC3)n(CC3CN(C(=O)c4ccnc(C#N)c4)C3)c12 [Example 183, 4-[3-({5-[(1R,4R,7R)-7-amino-2-azabicyclo[2.2.1]heptane-2-carbonyl]-2-[1-(cyclopropylmethyl)-1H-pyrrolo[2,3-b]pyridin-2-yl]-7-methoxy-1H-1,3-benzodiazol-1-yl}methyl)azetidine-1-carbonyl]pyridine-2-carbonitrile] | 6.56
11 | COc1cc(C(=O)N2C[C@H]3CC[C@@H]2[C@@H]3N)cc2nc(-c3cc4cccnc4n3CC3CC3)n(C3CN(C(=O)c4ccnc(C#N)c4)C3)c12 [Example 184, 4-(3-{5-[(1R,4R,7R)-7-amino-2-azabicyclo[2.2.1]heptane-2-carbonyl]-2-[1-(cyclopropylmethyl)-1H-pyrrolo[2,3-b]pyridin-2-yl]-7-methoxy-1H-1,3-benzodiazol-1-yl}azetidine-1-carbonyl)pyridine-2-carbonitrile] | 6.51
12 | COc1cc(C(=O)N2C[C@H]3CC[C@@H]2[C@@H]3N)cc2nc(-c3cc4cccnc4n3CC3CC3)n(C3CN(C(=O)c4cnc(NCC(C)(C)O)nc4)C3)c12 [Example 185, 1-{[5-(3-{5-[(1R,4R,7R)-7-amino-2-azabicyclo[2.2.1]heptane-2-carbonyl]-2-[1-(cyclopropylmethyl)-1H-pyrrolo[2,3-b]pyridin-2-yl]-7-methoxy-1H-1,3-benzodiazol-1-yl}azetidine-1-carbonyl)pyrimidin-2-yl]amino}-2-methylpropan-2-ol] | 6.50
13 | COc1cc(C(=O)N2C[C@H]3CC[C@@H]2[C@@H]3N)cc2nc(-c3cc4cccnc4n3CC3CC3)n(CC3CN(C(=O)CNC(C)=O)C3)c12 [Example 186, N-{2-[3-({5-[(1R,4R,7R)-7-amino-2-azabicyclo[2.2.1]heptane-2-carbonyl]-2-[1-(cyclopropylmethyl)-1H-pyrrolo[2,3-b]pyridin-2-yl]-7-methoxy-1H-1,3-benzodiazol-1-yl}methyl)azetidin-1-yl]-2-oxoethyl}acetamide] | 6.50
14 | COc1cc(C(=O)N2C[C@H]3CC[C@@H]2[C@@H]3N)cc2nc(-c3cc4cccnc4n3CC3CC3)n(CC3CN(C(C)=O)C3)c12 [Example 187, 1-[3-({5-[(1R,4R,7R)-7-amino-2-azabicyclo[2.2.1]heptane-2-carbonyl]-2-[1-(cyclopropylmethyl)-1H-pyrrolo[2,3-b]pyridin-2-yl]-7-methoxy-1H-1,3-benzodiazol-1-yl}methyl)azetidin-1-yl]ethan-1-one] | 6.45
15 | COC(=O)N1CC(n2c(-c3cc4cccnc4n3CC3CC3)nc3cc(C(=O)N4C[C@H]5CC[C@@H]4[C@@H]5N)cc(OC)c32)C1 [Example 188, methyl 3-{5-[(1R,4R,7R)-7-amino-2-azabicyclo[2.2.1]heptane-2-carbonyl]-2-[1-(cyclopropylmethyl)-1H-pyrrolo[2,3-b]pyridin-2-yl]-7-methoxy-1H-1,3-benzodiazol-1-yl}azetidine-1-carboxylate] | 6.41
16 | COc1cc(C(=O)N2C[C@H]3CC[C@@H]2[C@@H]3N)cc2nc(-c3cc4cccnc4n3CC3CC3)n(C3CN(C(=O)c4ccncc4)C3)c12 [Example 189, (1R,4R,7R)-2-{2-[1-(cyclopropylmethyl)-1H-pyrrolo[2,3-b]pyridin-2-yl]-7-methoxy-1-[1-(pyridine-4-carbonyl)azetidin-3-yl]-1H-1,3-benzodiazol-5-carbonyl}-2-azabicyclo[2.2.1]heptan-7-amine] | 6.23
17 | COc1cc(C(=O)N2C[C@H]3CC[C@@H]2[C@@H]3N)cc2nc(-c3cc4cccnc4n3CC3CC3)n(C3CN(C(=O)c4ccnc(O)c4)C3)c12 [Example 190, 4-(3-{5-[(1R,4R,7R)-7-amino-2-azabicyclo[2.2.1]heptane-2-carbonyl]-2-[1-(cyclopropylmethyl)-1H-pyrrolo[2,3-b]pyridin-2-yl]-7-methoxy-1H-1,3-benzodiazol-1-yl}azetidine-1-carbonyl)pyridin-2-ol] | 6.11
18 | COc1cc(C(=O)N2C[C@H]3CC[C@@H]2[C@@H]3N)cc2nc(-c3cc4cccnc4n3CC3CC3)n(C3CN(C(C)=O)C3)c12 [Example 191, 1-(3-{5-[(1R,4R,7R)-7-amino-2-azabicyclo[2.2.1]heptane-2-carbonyl]-2-[1-(cyclopropylmethyl)-1H-pyrrolo[2,3-b]pyridin-2-yl]-7-methoxy-1H-1,3-benzodiazol-1-yl}azetidin-1-yl)ethan-1-one] | 6.05
19 | COC(=O)N1CC(Cn2c(-c3cc4cccnc4n3CC3CC3)nc3cc(C(=O)N4CCC[C@@H](N)C4)cc(OC)c32)C1 [Example 192, methyl 3-({5-[(3R)-3-aminopiperidine-1-carbonyl]-2-[1-(cyclopropylmethyl)-1H-pyrrolo[2,3-b]pyridin-2-yl]-7-methoxy-1H-1,3-benzodiazol-1-yl}methyl)azetidine-1-carboxylate] | 5.80
20 | COc1cc(C(=O)N2C[C@H]3CC[C@@H]2[C@@H]3N)cc2nc(-c3cc4cccnc4n3CC3CC3)n(C3CN(C(=O)c4ccnc(F)c4)C3)c12 [Example 193, (1R,4R,7R)-2-{2-[1-(cyclopropylmethyl)-1H-pyrrolo[2,3-b]pyridin-2-yl]-1-[1-(2-fluoropyridine-4-carbonyl)azetidin-3-yl]-7-methoxy-1H-1,3-benzodiazole-5-carbonyl}-2-azabicyclo[2.2.1]heptan-7-amine] | 5.56
21 | COc1cc(C(=O)N2C[C@H]3CC[C@@H]2[C@@H]3N)cc2nc(-c3cc4cccnc4n3CC3CC3)n(C[C@H]3CCN(c4cncc(C#N)c4)C3)c12 [Example 195, 5-[(3S)-3-({5-[(1R,4R,7R)-7-amino-2-azabicyclo[2.2.1]heptane-2-carbonyl]-2-[1-(cyclopropylmethyl)-1H-pyrrolo[2,3-b]pyridin-2-yl]-7-methoxy-1H-1,3-benzodiazol-1-yl}methyl)pyrrolidin-1-yl]pyridine-3-carbonitrile] | 7.85
